What all share (type): cell-based
Assay [1] concerns the target T1, human K905N Nav1.2 (Homo sapiens, UniProt Q99250, K905N).
T1 construct: expressed in transfected cells; host or cells: CHO cells
Nature of the assay: Whole-cell patch clamp of sodium currents (INa) in CHO cells transiently expressing K905N Nav1.2. The settings on record: K905N Nav1.2, CHO cells, mean±SEM.

Assay [2] has as its target T2, human wild-type (WT) Nav1.2 (Homo sapiens, UniProt Q99250).
T2 construct: expressed in transfected cells; host or cells: CHO cells
Nature of the assay: Whole-cell patch clamp of sodium currents (INa) in CHO cells transiently expressing wild-type Nav1.2. Particulars: WT Nav1.2, CHO cells, mean±SEM.

In assay [3] the target is T3, human R1882Q Nav1.2 (Homo sapiens, UniProt Q99250, R1882Q).
T3 construct: expressed in transfected cells; host or cells: CHO cells
T3 sequence (Q99250 whole entry R1882Q): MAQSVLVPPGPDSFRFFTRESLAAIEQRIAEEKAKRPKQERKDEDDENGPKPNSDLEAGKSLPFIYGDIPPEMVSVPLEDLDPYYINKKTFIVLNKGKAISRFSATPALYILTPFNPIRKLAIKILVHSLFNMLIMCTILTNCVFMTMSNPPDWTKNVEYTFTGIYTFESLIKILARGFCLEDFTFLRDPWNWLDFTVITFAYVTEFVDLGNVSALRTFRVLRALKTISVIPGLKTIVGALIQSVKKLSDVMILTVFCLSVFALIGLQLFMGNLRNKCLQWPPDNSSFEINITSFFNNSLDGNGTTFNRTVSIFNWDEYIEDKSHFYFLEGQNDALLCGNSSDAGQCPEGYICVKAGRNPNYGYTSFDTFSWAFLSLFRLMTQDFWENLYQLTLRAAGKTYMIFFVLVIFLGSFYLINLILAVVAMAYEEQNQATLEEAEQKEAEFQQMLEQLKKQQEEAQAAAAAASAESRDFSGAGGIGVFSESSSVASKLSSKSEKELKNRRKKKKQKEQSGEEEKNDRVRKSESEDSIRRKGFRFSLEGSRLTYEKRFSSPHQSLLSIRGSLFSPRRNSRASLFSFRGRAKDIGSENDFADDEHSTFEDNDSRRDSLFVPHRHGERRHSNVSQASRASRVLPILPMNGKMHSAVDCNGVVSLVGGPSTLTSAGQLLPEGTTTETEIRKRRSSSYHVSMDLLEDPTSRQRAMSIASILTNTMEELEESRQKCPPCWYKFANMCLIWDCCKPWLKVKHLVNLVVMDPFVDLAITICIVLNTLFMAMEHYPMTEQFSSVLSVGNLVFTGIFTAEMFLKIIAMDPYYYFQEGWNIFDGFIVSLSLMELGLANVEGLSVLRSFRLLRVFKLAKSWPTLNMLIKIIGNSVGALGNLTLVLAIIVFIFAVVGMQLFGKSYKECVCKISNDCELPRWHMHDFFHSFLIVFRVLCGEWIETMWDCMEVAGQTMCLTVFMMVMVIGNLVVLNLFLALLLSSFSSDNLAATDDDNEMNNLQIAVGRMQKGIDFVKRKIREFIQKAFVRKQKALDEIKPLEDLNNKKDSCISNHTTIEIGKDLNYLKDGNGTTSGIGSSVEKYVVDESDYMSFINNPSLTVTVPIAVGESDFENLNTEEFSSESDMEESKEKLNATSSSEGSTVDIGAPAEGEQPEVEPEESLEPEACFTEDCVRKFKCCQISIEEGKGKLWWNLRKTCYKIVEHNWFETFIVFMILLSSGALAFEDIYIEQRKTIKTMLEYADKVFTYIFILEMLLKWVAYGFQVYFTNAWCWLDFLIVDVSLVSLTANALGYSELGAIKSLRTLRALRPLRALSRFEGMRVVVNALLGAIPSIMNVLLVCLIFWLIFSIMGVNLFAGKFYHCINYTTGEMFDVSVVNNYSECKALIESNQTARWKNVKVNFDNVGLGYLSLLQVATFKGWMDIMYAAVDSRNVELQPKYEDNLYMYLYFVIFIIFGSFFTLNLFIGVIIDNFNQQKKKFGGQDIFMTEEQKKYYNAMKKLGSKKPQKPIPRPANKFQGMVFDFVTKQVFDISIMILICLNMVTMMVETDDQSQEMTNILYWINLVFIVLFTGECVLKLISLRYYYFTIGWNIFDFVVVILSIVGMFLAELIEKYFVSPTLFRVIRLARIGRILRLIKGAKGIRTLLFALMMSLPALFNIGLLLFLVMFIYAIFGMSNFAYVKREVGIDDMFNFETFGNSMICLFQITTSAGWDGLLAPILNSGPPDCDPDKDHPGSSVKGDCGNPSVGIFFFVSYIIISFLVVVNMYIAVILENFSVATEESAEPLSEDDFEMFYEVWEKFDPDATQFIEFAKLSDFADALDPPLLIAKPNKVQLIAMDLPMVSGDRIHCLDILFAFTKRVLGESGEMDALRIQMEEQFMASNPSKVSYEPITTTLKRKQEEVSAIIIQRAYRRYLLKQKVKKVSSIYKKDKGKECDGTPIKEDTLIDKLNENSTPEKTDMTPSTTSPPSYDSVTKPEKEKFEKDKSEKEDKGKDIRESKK
Nature of the assay: Whole-cell patch clamp of sodium currents (INa) in CHO cells transiently expressing R1882Q Nav1.2. Particulars: R1882Q Nav1.2, CHO cells, mean±SEM. For orientation: The patch-clamp technique gives a direct electrical read-out from membranes.

SMILES strings stand for the structures.

We go through one compound from patent publication US20200085838A1, “METHODS OF TREATING EPILEPSY AND NEURODEVELOPMENTAL DISORDERS” (Praxis Precision Medicines, Inc., priority 2017, published 2020).

T1 sequence (Q99250 whole entry K905N): as the sequence (Q99250 whole entry R1882Q) above, with K905N, Q1882R counted along it
T2 sequence (Q99250 whole entry): as the sequence (Q99250 whole entry R1882Q) above, with Q1882R counted along it

Consider `O=C1c2cc(-c3ccc(OC(F)(F)F)cc3)ccc2OCCN1Cc1ncccn1` [eleclazine, 4-(pyrimidin-2-ylmethyl)-7-(4-(trifluoromethoxy)phenyl)-3,4-dihydrobenzo[f][1,4]oxazepin-5(2H)-one], for which the “Hill slope Late INa” value in assay [1] (late INa at 100 ms) turned out to be 0.55 ± 0.06; in assay [2] (late INa at 100 ms, INaL enhanced with 3 nM ATX-II), 0.94 ± 0.06; in assay [3] (late INa at 100 ms), 0.64 ± 0.2. Also, the “Hill slope Peak INa” value in assay [1] (peak INa) was 0.78 ± 0.2; in assay [2] (peak INa) it was 0.63 ± 0.07; in assay [3] (peak INa), 0.36 ± 0.14.
